The results in this text go back to US10617679B2, “Deuterated compounds and medical uses thereof” (JINGLUWEIDAI INFORMATION CONSULTING SERVICE (BEIJING) CO. …, priority 2016, dated 2020).

For data set [1], the system named is rat formalin model. Nature of the data set: Analgesic effects of intragastric administration in a rat formalin model. The conditions noted are these: mean ± SD; for Reaction time for phase I: licking time 0-5 min after formalin; for Reaction time for Phase II: licking time 15-30 min after formalin. The class given is in vivo, SD rats. How it is done: SD rats (male, weight 160-180 g) were randomly divided into groups with 6 rats in each group. After the rats were intragastrically administered different doses separately, they were placed in PVC observation boxes for habituation. After 30 min, the rats were injected subcutaneously with 20 μL of 2.7% formalin solution into the plantar surface of the left hind paws, and quickly put back in the PVC observation boxes for observation. The length of time the rats spent licking the injected-formalin paws at the early response (0-5 min, phase I) and the late response (15-30 min, Phase II) was recorded, and the analgesic activities of the test compounds were evaluated according to the length of time the rats spent licking during the period of observation. The experimental data were expressed as mean±standard deviation. The shorter the licking time, the better the analgesic effect of the compound.

The subject of data set [2] is Wistar rats. Nature of the data set: Evaluation of subacute toxicity (14 days, intragastric). It counts as in vivo. The following applies: 40 mg/kg intragastric once a day for 14 days. How it is done:
Male Wistar rats were randomly divided into groups with 10 rats in each group and weighed. A certain concentration of a test sample was ground and suspended in a 0.5% sodium carboxymethyl cellulose solution. The sodium carboxymethyl cellulose suspension containing 40 mg/kg of the test compound and a blank sodium carboxymethyl cellulose suspension as a control were intragastrically administered, once a day for 14 consecutive days. After the last administration, the rats were fasted but had free access to drinking water for 12 hours, and then anesthetized. Their blood samples were obtained from the abdominal aortas. According to SOPB093 “Standard Operating Procedures for Serum Preparation” in National Beijing Center for Drug Safety Evaluation and Research, serum was prepared for the determination of blood biochemical and immunological indicators; according to SOPB032 “Preparation of vacuum tubes with EDTA anticoagulation”, EDTA anticoagulation was prepared for the general blood routine tests.

The test system of data set [3] is rat chronic sciatic nerve compression neuralgia model. Nature of the data set: Analgesic effects of intragastric administration in a rat chronic sciatic nerve compression neuralgia model. The class given is in vivo, SD rats. The following applies: pain threshold 1 hour after administration. The procedure:
SD rats (male, weight 160-180 g) were anesthetized using sodium pentobarbital (40 mg/kg), of which the sciatic nerves were separated in the middle segment of the right hind limbs. In the anterior segment of the sciatic nerve to be bifurcated, the sciatic nerve was separated from the surrounding tissue using a sterile glass hook. Four rings were loosely ligated with sterile chrome gut (No. 4, 0.15 mm in diameter) by an interval of 1 to 2 mm. Topically sprinkled with penicillin powder. The muscle tissue and skin were sutured. The rats were placed in a cage with cork dust. In the sham surgery group, the sciatic nerve was only exposed, and the other treatments were the same as described above. The rats after surgery were placed in a metal cage. […] The weight of the filament was recorded and set to be the threshold (in g). Meanwhile, the number of foot-lifting response to the 10 stimulations of the fiber filaments of different weights was recorded, and the highest threshold was set at 26 g.
5-6 rats in each group were intragastrically administered and the pain thresholds were measured 1 hour after administration. Statistical analysis of the thresholds was performed using non-parametric Wilcoxon 2-Sample Test and Kruskal-Wallis Test, and the data was analyzed with SASS data processing software. Analgesic percent (%)=(pain threshold after drug treatment−pain threshold before drug treatment)/(maximal analgesia threshold−pain threshold before drug treatment)[…].

In data set [4] the test system is blood pressure in rats. The data set is described as follows: Effects on blood pressure in rats. It counts as in vivo, SD rats. How it is done: (§1) SD rats (male, weight 160-180 g) were fasted for 12 hours before administration but had free access to drinking water. The rats were randomly divided into groups. They were anesthetized with an intraperitoneal injection of 50-60 mg/kg dose of sodium pentobarbital. Each rat was fixed on the back on the surgical table. The skin was cut from the center of the neck, and an incision of about 2.5 cm was made. The subcutaneous tissue and the median muscle were separated; the trachea was fully exposed; and the endotracheal intubation was performed. The subcutaneous tissue was separated from front to back on the right side; the right common carotid artery, the vagus nerve and the sympathetic nerve were exposed; and the carotid artery cannulation was performed. Finally, the endotracheal tube and the carotid artery cannula were respectively connected to a respiration transducer and a blood pressure transducer, and then connected to a multifunctional physiological recorder. At 30 minutes after surgery, the rats were intragastrically administrated. Heart rate and blood pressure were measured at different time points after administration.

Data set [5] deals with heart rate in rats. Nature of the data set: Effects on heart rate in rats. The class given is in vivo, SD rats. The procedure: as §1
In data set [6] the test system is oxycodone-induced place preference in rats. The data set is described as follows: Inhibition of oxycodone-induced place preference in rats. It counts as in vivo, SD rats. The following applies: day 10, within 15 minutes. How it is done:
SD rats (male, weight 160-180 g) were placed in conditioned place preference (CPP) training boxes, where the partition door between the boxes was open. Time the rats spent in each of the boxes was recorded within 15 min in order to determine the natural tendency of the rats. The rats were then randomly divided into groups with 10 rats in each group according to the amount of time spent in the white box. The white box was a drug box, and the black box was a box with the absence of the drug. After intragastric administration with a test compound for 40 minutes, the rats were injected subcutaneously with oxycodone (2.5 mg/kg, s.c.) or saline, and immediately placed in the white box or the black box to be trained for 45 minutes, once a day for 9 consecutive days. On the 10th day, the rats were placed in the training boxes with the partition door open. The time the rats spent in the white box was recorded within 15 minutes to evaluate effects on place preference in the rats.

The mark [7] stands for this setting: 20 mg/kg intragastric, time point 0.
Setting [8] is: 20 mg/kg intragastric, time point 30.
Setting [9] is: 20 mg/kg intragastric, time point 60.
Where [10] appears, read: 20 mg/kg intragastric, time point 90.
The mark [11] stands for this setting: 20 mg/kg intragastric, time point 120.
Setting [12] is: 20 mg/kg intragastric, time point 180.
Setting [13] is: 40 mg/kg intragastric, time point 0.
[14] abbreviates: 40 mg/kg intragastric, time point 30.
Setting [15] is: 40 mg/kg intragastric, time point 60.
Setting [16] is: 40 mg/kg intragastric, time point 90.
[17] abbreviates: 40 mg/kg intragastric, time point 120.
The mark [18] stands for this setting: 40 mg/kg intragastric, time point 180.

As to `[2H]C([2H])([2H])Oc1c(OC)ccc2c1CN1CCc3cc(OC)c(OC)cc3[C@@H]1C2` [Formula I1, (13a S)-2,3,10-trimethoxy-9-[(trideutero)-methoxy]-6,8,13,13a-tetrahydro-5H-isoquinolino[2,1-b]isoquinoline], in data set [1] (20 mg/kg intragastric), the “Reaction time for phase I” value worked out at 82.4 ± 33.2 s and the “Reaction time for Phase II” value is 194.0 ± 35.7 s. Further, in data set [1] (40 mg/kg intragastric), the “Reaction time for phase I” value was 42.6 ± 45.0 s and the “Reaction time for Phase II” value was 92.7 ± 25.1 s.
With `[2H]C([2H])([2H])Oc1ccc2c(c1OC)CN1CCc3cc(OC)c(OC)cc3[C@@H]1C2` [Formula I2, (13a S)-2,3,9-trimethoxy-10-[(trideutero)-methoxy]-6,8,13,13a-tetrahydro-5H-isoquinolino[2,1-b]isoquinoline], the “Reaction time for phase I” value in data set [1] (20 mg/kg intragastric) was 82.1 ± 16.3 s; in data set [1] (40 mg/kg intragastric) it was 41.0 ± 10.7 s. Besides, the results for the “Reaction time for Phase II” value in data set [1] (20 mg/kg intragastric) and in data set [1] (40 mg/kg intragastric) were 64.5 ± 19.5 s and 46.5 ± 16.0 s, respectively. Further, in data set [2] (rat), the ALT came out at 172.8 ± 37.5 U/L. The AST in data set [2] (rat) is recorded as 195.0 ± 32.1 U/L. The “histopathological examination of liver” value in data set [2] (result in words) is “vacuolar degeneration of hepatocytes”. For the same compound, the “plasma ALT and AST versus control group” value in data set [2] (result in words) is given as “significant increase”. In addition, the figures for the Analgesic percent in data set [3] (20 mg/kg intragastric) and in data set [3] (40 mg/kg intragastric) were 59.00% and 68.86%, respectively. Further, the Blood pressure in data set [4] (setting [7]) amounted to 113.1 ± 15.7 mmHg; in data set [4] (setting [8]), 113.4 ± 17.3 mmHg; in data set [4] (setting [9]), 101.5 ± 27.46 mmHg; in data set [4] (setting [10]), 102.25 ± 21.6 mmHg; in data set [4] (setting [11]) it was 113.1 ± 14.2 mmHg; in data set [4] (setting [12]) it was 102.3 ± 7.6 mmHg. The Blood pressure in data set [4] (setting [13]) is reported as 114.6 ± 19.4 mmHg; in data set [4] (setting [14]), 95.5 ± 15.9 mmHg; in data set [4] (setting [15]), 82.5 ± 19.8 mmHg; in data set [4] (setting [16]), 92.8 ± 18.6 mmHg; in data set [4] (setting [17]) it was 110.5 ± 15.5 mmHg; in data set [4] (setting [18]) it was 100.0 ± 17.8 mmHg. Further, the Heart rate in data set [5] (setting [7]) is 400.8 ± 32.1 BTM; in data set [5] (setting [8]), 378.3 ± 30.3 BTM; in data set [5] (setting [9]) it was 384.6 ± 48.2 BTM; in data set [5] (setting [10]) it was 388.0 ± 21.4 BTM; in data set [5] (setting [11]) it was 402.5 ± 59.3 BTM; in data set [5] (setting [12]), 407.0 ± 36.5 BTM. The Heart rate amounted to 409.2 ± 41.7 BTM in data set [5] (setting [13]); 390.7 ± 41.7 BTM in data set [5] (setting [14]); 319.7 ± 57.2 BTM in data set [5] (setting [15]); 353.8 ± 66.7 BTM in data set [5] (setting [16]); 378.0 ± 47.6 BTM in data set [5] (setting [17]); 407.0 ± 42.6 BTM in data set [5] (setting [18]). Also, the results for the “Time spent in the drug box (Mean ± S)” value in data set [6] (test dose 10 mg/kg intragastric + oxycodone 2.5 mg/kg s.c.) and in data set [6] (test dose 20 mg/kg intragastric + oxycodone 2.5 mg/kg s.c.) were 193.94 ± 44.3 s and 140.59 ± 28.52 s, respectively.
Consider `[2H]C([2H])([2H])Oc1cc2c(cc1OC)CCN1Cc3c(ccc(OC)c3OC)C[C@@H]21` [Formula I3, (13a S)-3,9,10-trimethoxy-2-[(trideutero)-methoxy]-6,8,13,13a-tetrahydro-5H-isoquinolino[2,1-b]isoquinoline], for which the “Reaction time for phase I” value in data set [1] (20 mg/kg intragastric) was 79.6 ± 31.3 s; in data set [1] (40 mg/kg intragastric), 45.1 ± 29.4 s. For the same compound, the “Reaction time for Phase II” value in data set [1] (20 mg/kg intragastric) is 126.3 ± 29.6 s; in data set [1] (40 mg/kg intragastric) it was 72.3 ± 37.8 s. Besides, the values for the Analgesic percent in data set [3] (20 mg/kg intragastric) and in data set [3] (40 mg/kg intragastric) were 44.80% and 68.67%, respectively.
For `[2H]C([2H])([2H])Oc1cc2c(cc1OC)[C@@H]1Cc3ccc(OC)c(OC)c3CN1CC2` [Formula I4, (13a S)-2,9,10-trimethoxy-3-[(trideutero)-methoxy]-6,8,13,13a-tetrahydro-5H-isoquinolino[2,1-b]isoquinoline], in data set [1] (20 mg/kg intragastric), the “Reaction time for phase I” value worked out at 90.3 ± 29.0 s and the “Reaction time for Phase II” value was 151.2 ± 31.6 s. Also, in data set [1] (40 mg/kg intragastric), the “Reaction time for phase I” value turned out to be 61.5 ± 36.6 s and the “Reaction time for Phase II” value came to 74.3 ± 38.0 s.
Turning to `[2H]C([2H])([2H])Oc1cc2c(cc1OC)CCN1Cc3c(ccc(OC)c3OC([2H])([2H])[2H])C[C@@H]21` [Formula I5, (13a S)-3,10-dimethoxy-2,9-di-[(trideutero)-methoxy]-6,8,13,13a-tetrahydro-5H-isoquinolino[2,1-b]isoquinoline], the results for the “Reaction time for phase I” value in data set [1] (20 mg/kg intragastric) and in data set [1] (40 mg/kg intragastric) were 85.8 ± 28.0 s and 53.4 ± 23.5 s, respectively. Further, the “Reaction time for Phase II” value was 112.7 ± 29.2 s in data set [1] (20 mg/kg intragastric) and 66.5 ± 27.6 s in data set [1] (40 mg/kg intragastric). In addition, the Analgesic percent is listed as 39.40% in data set [3] (20 mg/kg intragastric) and 67.56% in data set [3] (40 mg/kg intragastric).
